Assay results: patent publication US20080051447A1, “Treatment Of Hypercholesterolemia, Hypertriglyceridemia And Cardiovascular-Related Conditions Using Phospholipase-A2 Inhibitors” (priority 2005, published 2008)

Assays:
[1] = biological target: human pancreatic secreted PLA2 (hps PLA2) (Homo sapiens, UniProt P04054); settings: reported activity data; cited from earlier work
[2] = biological target: porcine pancreatic secreted PLA2 (pps PLA2) (Sus scrofa, UniProt P00592); settings: reported activity data; cited from earlier work
Sequence of porcine pancreatic secreted PLA2 (pps PLA2) (P00592 23-146): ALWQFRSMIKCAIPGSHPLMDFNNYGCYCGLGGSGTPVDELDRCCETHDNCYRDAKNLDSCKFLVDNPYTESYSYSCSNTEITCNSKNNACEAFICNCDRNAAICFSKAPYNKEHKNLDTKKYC

Caco-2 cells = experiment: Caco-2 permeability study (Example 6B); assay type: in vitro ADME, human
Protocol: The culture medium was refreshed every 48 hours.

mouse PLA2 IB enzyme = mouse PLA2 IB enzyme (Mus musculus, UniProt Q9Z0Y2); settings: pyrene substrate release from vesicles (Singer, Ghomashchi et al. 2002); read-out: IC50 versus the mouse PLA2 IB enzyme; cited from earlier work
Sequence of mouse PLA2 IB enzyme (Q9Z0Y2 23-146): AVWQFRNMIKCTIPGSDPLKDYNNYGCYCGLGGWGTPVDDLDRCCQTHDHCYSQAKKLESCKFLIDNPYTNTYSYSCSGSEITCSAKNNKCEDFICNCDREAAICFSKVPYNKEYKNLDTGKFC

[3] = tested on: wild-type C57BL/6 mice on high fat/high sucrose diet; experiment: Body weight gain in mice on high fat/high sucrose diabetogenic diet (Example 5A); assay type: in vivo; settings: for body weight gain compared to the wild-type control group: week 4 and week 10
Protocol: (§1) ILY-4001 (FIG. 2) was evaluated as a PLA2 IB inhibitor in a set of experiments using wild-type mice and genetically deficient PLA2 (−/−) mice (also referred to herein as PLA2 knock-out (KO) mice). In these experiments, wild-type and PLA2 (−/−) mice were maintained on a high fat/high sucrose diet, details of which are described below.
(§2) Briefly, four groups were set up, each having six mice. Three of the groups included six wild-type PLA2 (+/+) mice in each group (eighteen mice total), and one of the groups included six genetically deficient PLA2 (−/−) mice. One of the wild-type groups was used as a wild-type control group, and was not treated with ILY-4001. The other two wild-type groups were treated with ILY-4001—one group at a lower dose (indicated as “L” in Table 1) of 25 mg/kg/day, and the other at a higher dose (indicated as “H” in Table 1) of 90 mg/kg/day. The group comprising the PLA2 (−/−) mice was used as a positive control group.
(§3) The experimental protocol used in this study was as follows. The four groups of mice, including wild type and isogenic PLA2 (−/−) C57BL/J mice were acclimated for three days on a low fat/low carbohydrate diet. After the three day acclimation phase, the animals were fasted overnight and serum samples taken to establish baseline plasma cholesterol, triglyceride, and glucose levels, along with baseline body weight. The mice in each of the treatment groups were then fed a high fat/high sucrose diabetogenic diet (Research Diets D12331). 1000 g of the high fat/high sucrose D12331 diet was composed of casein (228 g), DL-methionine (2 g), maltodextrin 10 (170 g), sucrose (175 g), soybean oil (25 g), hydrogenated coconut oil (333.5 g), mineral mix S10001 (40 g), sodium bicarbonate (10.5 g), potassium citrate (4 g), vitamin mix V10001 (10 g), and choline bitartrate (2 g). This diet was supplemented with ILY-4001 treatments such that the average daily dose of the compound ingested by a 25 g mouse was: 0 mg/kg/day (wild-type control group and PLA2 (−/−) control group); 25 mg/kg/day (low-dose wild-type treatment group), or 90 mg/kg/day (high-dose wild-type treatment group). The animals were maintained on the high fat/high sucrose diet, with the designated ILY-4001 supplementation, for a period of ten weeks.
(§4) Body weight measurements were taken for all animals in all treatment and control groups at the beginning of the treatment period and at 4 weeks and 10 weeks after initiation of the study. (See Example 5A). Blood draws were also taken at the beginning of the treatment period (baseline) and at 4 weeks and 10 weeks after initiation of the study, in order to determine fasting glucose (See Example 5B). Cholesterol and triglyceride levels were determined from blood draws taken at the beginning of the treatement (baseline) and at ten weeks. (See Example 5C).
In the study generally described above in Example 5, body weight measurements were taken for all animals in all treatment and control groups at the beginning of the treatment period and at 4 weeks and 10 weeks after initiation of the study.

[4] = Pharmokinetic study, bioavailability (Example 6C); assay type: in vivo, mice; settings: ORAL 30 mg/kg
Source text: This example characterized ILY-4001 [2-(3-(2-amino-2-oxoacetyl)-1-(biphenyl-2-ylmethyl)-2-methyl-1H-indol-4-yloxy)acetic acid], alternatively referred to herein as methyl indoxam, with respect to activity, as determined by IC50 assay (Example 6A), with respect to cell absorbtion, as determined by in-vitro Caco-2 assay (Example 6B) and with respect to bioavailability, as determined using in-vivo mice studies (Example 6C).
This example evaluated the bioavailability of ILY-4001 [2-(3-(2-amino-2-oxoacetyl)-1-(biphenyl-2-ylmethyl)-2-methyl-1H-indol-4-yloxy)acetic acid], alternatively referred to herein as methyl indoxam. […]
Bioavailability was calculated as a ratio of AUC-oral/AUC-intravenous (IV). To determine this ratio, a first set of subject animals were given a measured intravenous (IV) dose of ILY-4001, followed by a determination of ILY-4001 levels in the blood at various time points after administration (e.g., 5 minutes through 24 hours). Another second set of animals was similarly dosed using oral administration, with blood levels of ILY-4001 determined at various time points after administration (e.g., 30 minutes through 24 hours). The level of ILY-4001 in systemic circulation were determined by generally accepted methods (for example as described in Evans, G., A Handbook of Bioanalysis and Drug Metabolism. Boca Raton, CRC Press (2004)). […]

human PLA2 IB enzyme = human PLA2 IB enzyme (Homo sapiens, UniProt P04054); settings: pyrene substrate release from vesicles (Singer, Ghomashchi et al. 2002); read-out: IC50 versus the human PLA2 IB enzyme; cited from earlier work
Sequence of human PLA2 IB enzyme (P04054 23-148): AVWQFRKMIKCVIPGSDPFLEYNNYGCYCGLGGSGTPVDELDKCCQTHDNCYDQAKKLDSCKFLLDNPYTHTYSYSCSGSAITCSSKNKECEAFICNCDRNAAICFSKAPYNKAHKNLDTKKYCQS

Stability at low pH = assay type: physicochemical; settings: predicted to survive passage through the stomach
[5] = tested on: wild-type C57BL/6 mice on high fat/high sucrose diet; experiment: Fasting serum glucose in mice on high fat/high sucrose diabetogenic diet (Example 5B); assay type: in vivo; settings: low dose 25 mg/kg/day (group 2)
Protocol: as §1, §2
The experimental protocol used in this study was as follows. […]
Body weight measurements were taken for all animals in all treatment and control groups at the beginning of the treatment period and at 4 weeks and 10 weeks after initiation of the study. […] Cholesterol and triglyceride levels were determined from blood draws taken at the beginning of the treatement (baseline) and at ten weeks. […]

[6] = tested on: wild-type C57BL/6 mice on high fat/high sucrose diet; experiment: Serum cholesterol and triglycerides in mice on high fat/high sucrose diabetogenic diet (Example 5C); assay type: in vivo; settings: 10 weeks
Protocol: as §1, §2, §3
as §4, with “(See Example 5C).” left out

[7] = high dose 90 mg/kg/day (group 3)
[8] = low dose 25 mg/kg/day (group 2)

Sequence of human pancreatic secreted PLA2 (hps PLA2) (P04054 23-148): as above

For Cc1c(CC(=O)NN)c2cc(OCCCC(=O)O)ccc2n1Cc1ccccc1, which “IC50 hps PLA2” value [1] is on record?
Its value is “no activity”.

What about the “IC50 pps PLA2” value [2] of the same compound?
The value was “no activity”.

With Cc1c(C(=O)C(N)=O)c2c(/C=C/C(=O)O)cccc2n1Cc1ccccc1 as the compound, how does the IC50 [1] read?
The IC50 was > 100 µM.

For Cc1c(C(=O)C(N)=O)c2c(CCC(=O)O)cccc2n1Cc1ccccc1, which IC50 [1] is on record?
Its IC50 is > 100 µM.

What does the source list for Cc1c(C(=O)C(N)=O)c2c(OCC(=O)O)cccc2n1Cc1ccccc1-c1ccccc1 [ILY-4001, 2-(3-(2-amino-2-oxoacetyl)-1-(biphenyl-2-ylmethyl)-2-methyl-1H-indol-4-yloxy)acetic acid]?
apparent permeability (Caco-2 cells; Caco-2 monolayers, apical to basolateral, 50 ug/ml): around 1.66×10^−7 cm/s; absorbtion from the GI lumen (Caco-2 cells; based on Caco-2 assays and pharmokinetic studies): relatively low absorbtion; IC50 (mouse PLA2 IB enzyme): ~150 nM; body weight gain relative to PLA2 (−/−) mice ([3]; 25 mg/kg/d (low-dose) in diet, ten weeks): modulated to an extent comparable to that achieved in the PLA2 (−/−) mice; body weight gain relative to PLA2 (−/−) mice ([3]; 25 mg/kg/d in diet, four weeks): modulated to an extent approaching that achieved in the PLA2 (−/−) mice; body weight gain compared to the wild-type control group ([3]; 25 mg/kg/d in diet): significantly reduced body weight gains; body weight gain relative to PLA2 (−/−) mice ([3]; 90 mg/kg/d in diet, four weeks): modulated to an extent approaching that achieved in the PLA2 (−/−) mice; body weight gain compared to the wild-type control group ([3]; 90 mg/kg/d in diet): significantly reduced body weight gains; level of non-absorption from the GI tract into systemic circulation [4]: ~72%; IC50 (human PLA2 IB enzyme): ~200 nM; stability at low pH (Stability at low pH): stable at low pH; fasting glucose levels ([5]; week four): moderately beneficial effect; fasting glucose levels ([5]; week ten): a beneficial effect was not observed; plasma levels of cholesterol [6, 7]: substantially reduced; plasma levels of triglycerides [6, 7]: substantially reduced; plasma levels of cholesterol [6, 8]: substantially reduced; plasma levels of triglycerides [6, 8]: substantially reduced

For Lucifer Yellow [reference compound], which “apparent permeability (paracellular transport control)” value (Caco-2 cells; Caco-2) is on record?
Its value is “around 2.82×10^−7+/−0.37×10^−7 cm/s”.
